Several values for one entry are separate records, joined by “and”; a condition that tells them apart may be missing. Identical values can stand only once.
How the values were obtained:
Assay in all cases: PamChip tyrosine kinase microarray
Type in all cases: biochemical
Conditions in all cases: 0.1 µM, HL60 lysate
[1] = biological target: T1, BLK (P51451) (Homo sapiens, UniProt P51451)
T1 construct: purchased PamGene (PamChip PTK array, Upstream Kinase Analysis)
Method: (§1) The reproducible high potency of KIM-161 on leukemia cell lines was initially speculated to encompass Src tyrosine kinase inhibition. Even so, we also suspected that KIM-161 might be affecting other tyrosine kinases because the HL60 cells are not among the most Src-dependent highly proliferative cells ([Collins, 1987]). Therefore, a profiling of the kinase activities was performed after treatment with KIM-161 using PamChip® tyrosine kinase microarray. This analysis is based on incubation of cell lysate with 3D microarray that projects peptides specific for 143 tyrosine kinases. If a kinase is modified in the cells, it will be detected by phosphorylating its specific peptide in the microarray.
(§2) This test measured the activities of an array of tyrosine kinases of treated HL60 cells compared to the control (untreated cells) after incubation with KIM-161 for 48 h at concentrations of 0.001, 0.01, 0.1, 1.0, 10, and 50 µM. The log fold change (LFC) heat map was initially used to identify significant peptides affected at each concentration (Figure 5).
(§3) An Upstream Kinase Tool was used to generate a putative list of kinases responsible for phosphorylating the phosphosites on the PamChip®. It is an interpretation and is highly dependent on the contents of the underlying phosphorylation databases. Kinase score (Table 2) was used for ranking kinases based on their significance and specificity in terms of the set of peptides used for the corresponding kinase. Kinase statistics indicates the overall change of the peptide set that represents a certain kinase. Kinase statistics value of <0 indicates lower kinase activity in the lysate spiked with the compound and vice versa. Table 2 lists the 20 most changed kinases within treated HL60 cell lysates by 0.1 μM KIM-161.
(§4) Every compound had spiked into a leukemic (AML) cell line HL60 lysate at different concentrations (0.001, 0.01, 0.1, 1, 10, and 50 μM). In addition, DMSO had also spiked at a low concentration (2% v/v) to the HL60 lysate as the control. The samples were profiled on PamGene's tyrosine kinase (PTK) arrays in technical replicates, covering a total of 196 phosphorylation sites. The frozen leukemic HL60 cultured cell pellet was sent to PamGene. At PamGene, the cells were lysed in the presence of the lysis buffer and proteases inhibitor cocktail. The protein concentration was measured using the standard Bradford assay as per the PamGene SOPs. These lysates were further used for generating the PTK activity profiles. For spiking, KIM-161 was received in powder form and dissolved in DMSO at the PamGene facility, followed by storing it at −20°C in small aliquots. PamGene used its in-house bioinformatics toolbox in combination with other methods to generate the hypotheses of signaling pathways.

[2] = biological target: T2, BTK (Q06187) (Homo sapiens, UniProt Q06187)
T2 construct: purchased PamGene (PamChip PTK array, Upstream Kinase Analysis)
Method: as §1, §2, §3, §4

[3] = biological target: T3, CSK (P41240) (Homo sapiens, UniProt P41240)
T3 construct: purchased PamGene (PamChip PTK array, Upstream Kinase Analysis)
Method: as §1, §2, §3, §4

[4] = biological target: T4, EphA7 (Q15375) (Homo sapiens, UniProt Q15375)
T4 construct: purchased PamGene (PamChip PTK array, Upstream Kinase Analysis)
Method: as §1, §2, §3, §4

[5] = biological target: T5, Etk/BMX (P51813) (Homo sapiens, UniProt P51813)
T5 construct: purchased PamGene (PamChip PTK array, Upstream Kinase Analysis)
T5 sequence (P51813 1-675): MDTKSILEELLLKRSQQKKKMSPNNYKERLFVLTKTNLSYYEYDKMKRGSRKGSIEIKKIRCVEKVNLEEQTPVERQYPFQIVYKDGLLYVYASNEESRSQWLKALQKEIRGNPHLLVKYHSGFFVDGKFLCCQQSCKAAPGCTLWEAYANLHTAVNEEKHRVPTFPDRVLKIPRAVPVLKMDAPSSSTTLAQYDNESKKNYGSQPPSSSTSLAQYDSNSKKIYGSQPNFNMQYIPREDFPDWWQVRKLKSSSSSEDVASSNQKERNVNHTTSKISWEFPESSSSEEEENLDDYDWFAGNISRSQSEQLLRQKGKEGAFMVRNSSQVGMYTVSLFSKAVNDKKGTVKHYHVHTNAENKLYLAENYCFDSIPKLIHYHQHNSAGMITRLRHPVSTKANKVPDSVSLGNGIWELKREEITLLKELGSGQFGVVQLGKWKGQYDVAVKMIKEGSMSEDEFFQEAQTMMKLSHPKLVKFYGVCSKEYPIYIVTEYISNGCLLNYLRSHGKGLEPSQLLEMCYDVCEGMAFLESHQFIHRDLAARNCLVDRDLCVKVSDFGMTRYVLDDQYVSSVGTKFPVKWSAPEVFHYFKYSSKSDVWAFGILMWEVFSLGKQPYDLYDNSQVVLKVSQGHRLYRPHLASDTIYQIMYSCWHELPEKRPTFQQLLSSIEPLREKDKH
Method: as §1, §2, §3, §4

[6] = biological target: T6, FRK (P42685) (Homo sapiens, UniProt P42685)
T6 construct: purchased PamGene (PamChip PTK array, Upstream Kinase Analysis)
Method: as §1, §2, §3, §4

[7] = biological target: T7, FmS/CSFR (P07333) (Homo sapiens, UniProt P07333)
T7 construct: purchased PamGene (PamChip PTK array, Upstream Kinase Analysis)
Method: as §1, §2, §3, §4

[8] = biological target: T8, Ron (Q04912) (Homo sapiens, UniProt Q04912)
T8 construct: purchased PamGene (PamChip PTK array, Upstream Kinase Analysis)
Method: as §1, §2, §3, §4

T3 sequence (P41240 whole entry): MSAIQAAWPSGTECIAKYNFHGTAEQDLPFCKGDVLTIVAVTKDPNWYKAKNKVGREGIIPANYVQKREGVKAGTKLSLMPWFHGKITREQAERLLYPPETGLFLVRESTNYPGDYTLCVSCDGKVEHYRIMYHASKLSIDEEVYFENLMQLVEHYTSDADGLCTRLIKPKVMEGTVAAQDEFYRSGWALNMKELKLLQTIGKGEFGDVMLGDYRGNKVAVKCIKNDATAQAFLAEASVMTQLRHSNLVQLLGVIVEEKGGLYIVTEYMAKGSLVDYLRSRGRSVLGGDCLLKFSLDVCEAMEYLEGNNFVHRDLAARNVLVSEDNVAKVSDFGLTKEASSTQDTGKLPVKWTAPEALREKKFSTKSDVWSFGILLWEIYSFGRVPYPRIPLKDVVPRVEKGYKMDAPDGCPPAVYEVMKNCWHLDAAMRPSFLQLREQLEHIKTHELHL
T1 sequence (P51451 whole entry): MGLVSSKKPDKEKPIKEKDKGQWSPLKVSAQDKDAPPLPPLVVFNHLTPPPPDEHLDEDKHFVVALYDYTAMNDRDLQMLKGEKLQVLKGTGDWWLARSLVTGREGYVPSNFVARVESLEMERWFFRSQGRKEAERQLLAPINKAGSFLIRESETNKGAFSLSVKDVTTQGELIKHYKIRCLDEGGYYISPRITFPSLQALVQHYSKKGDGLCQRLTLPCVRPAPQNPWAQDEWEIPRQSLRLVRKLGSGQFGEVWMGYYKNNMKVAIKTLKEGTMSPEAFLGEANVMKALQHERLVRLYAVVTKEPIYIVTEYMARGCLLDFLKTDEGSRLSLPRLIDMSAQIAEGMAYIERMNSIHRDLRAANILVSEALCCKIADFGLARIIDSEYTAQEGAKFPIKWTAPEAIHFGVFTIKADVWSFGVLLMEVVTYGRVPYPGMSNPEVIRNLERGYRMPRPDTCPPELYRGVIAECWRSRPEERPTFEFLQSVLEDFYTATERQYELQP
T4 sequence (Q15375 28-998): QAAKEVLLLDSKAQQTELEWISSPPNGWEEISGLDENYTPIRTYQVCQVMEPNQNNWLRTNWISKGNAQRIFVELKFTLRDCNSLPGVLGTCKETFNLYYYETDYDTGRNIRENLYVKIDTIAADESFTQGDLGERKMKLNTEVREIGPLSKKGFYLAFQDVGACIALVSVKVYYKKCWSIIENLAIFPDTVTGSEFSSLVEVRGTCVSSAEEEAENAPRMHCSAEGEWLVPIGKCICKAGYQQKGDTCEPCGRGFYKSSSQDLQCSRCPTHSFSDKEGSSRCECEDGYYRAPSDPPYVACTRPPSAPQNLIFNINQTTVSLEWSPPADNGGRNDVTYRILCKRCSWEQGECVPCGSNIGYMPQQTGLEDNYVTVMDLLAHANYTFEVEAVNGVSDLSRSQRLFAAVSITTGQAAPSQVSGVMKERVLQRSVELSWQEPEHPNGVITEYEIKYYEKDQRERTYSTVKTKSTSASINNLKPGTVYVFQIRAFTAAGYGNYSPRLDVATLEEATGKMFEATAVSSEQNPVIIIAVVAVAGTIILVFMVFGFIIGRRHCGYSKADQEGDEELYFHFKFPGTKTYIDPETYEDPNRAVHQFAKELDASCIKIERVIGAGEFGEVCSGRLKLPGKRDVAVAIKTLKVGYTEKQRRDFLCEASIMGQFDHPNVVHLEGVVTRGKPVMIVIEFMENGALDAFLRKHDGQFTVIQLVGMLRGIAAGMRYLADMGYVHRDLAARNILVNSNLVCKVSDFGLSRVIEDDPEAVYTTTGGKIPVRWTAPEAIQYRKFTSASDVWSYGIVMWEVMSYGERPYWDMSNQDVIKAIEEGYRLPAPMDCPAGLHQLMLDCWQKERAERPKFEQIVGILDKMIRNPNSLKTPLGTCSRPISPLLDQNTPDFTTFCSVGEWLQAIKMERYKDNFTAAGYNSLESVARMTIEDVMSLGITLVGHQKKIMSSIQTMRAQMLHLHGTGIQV
T2 sequence (Q06187 whole entry): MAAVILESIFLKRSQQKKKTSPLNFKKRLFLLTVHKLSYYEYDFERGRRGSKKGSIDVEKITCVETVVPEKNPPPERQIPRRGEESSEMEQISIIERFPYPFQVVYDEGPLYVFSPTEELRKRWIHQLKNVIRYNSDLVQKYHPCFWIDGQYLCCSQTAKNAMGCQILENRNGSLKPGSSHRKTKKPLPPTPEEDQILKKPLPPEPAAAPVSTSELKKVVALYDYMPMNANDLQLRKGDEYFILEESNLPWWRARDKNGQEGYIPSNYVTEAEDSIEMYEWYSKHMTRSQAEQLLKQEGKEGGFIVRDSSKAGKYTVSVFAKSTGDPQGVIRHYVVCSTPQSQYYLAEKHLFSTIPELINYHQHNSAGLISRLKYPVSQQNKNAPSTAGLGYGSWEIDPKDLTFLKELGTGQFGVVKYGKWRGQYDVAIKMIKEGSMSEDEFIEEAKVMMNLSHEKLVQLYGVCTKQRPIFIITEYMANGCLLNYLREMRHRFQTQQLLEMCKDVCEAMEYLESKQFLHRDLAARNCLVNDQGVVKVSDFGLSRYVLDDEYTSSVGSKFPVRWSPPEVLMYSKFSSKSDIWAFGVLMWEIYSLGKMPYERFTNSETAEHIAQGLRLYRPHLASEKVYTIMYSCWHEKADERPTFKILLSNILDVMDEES
T8 sequence (Q04912 25-1400): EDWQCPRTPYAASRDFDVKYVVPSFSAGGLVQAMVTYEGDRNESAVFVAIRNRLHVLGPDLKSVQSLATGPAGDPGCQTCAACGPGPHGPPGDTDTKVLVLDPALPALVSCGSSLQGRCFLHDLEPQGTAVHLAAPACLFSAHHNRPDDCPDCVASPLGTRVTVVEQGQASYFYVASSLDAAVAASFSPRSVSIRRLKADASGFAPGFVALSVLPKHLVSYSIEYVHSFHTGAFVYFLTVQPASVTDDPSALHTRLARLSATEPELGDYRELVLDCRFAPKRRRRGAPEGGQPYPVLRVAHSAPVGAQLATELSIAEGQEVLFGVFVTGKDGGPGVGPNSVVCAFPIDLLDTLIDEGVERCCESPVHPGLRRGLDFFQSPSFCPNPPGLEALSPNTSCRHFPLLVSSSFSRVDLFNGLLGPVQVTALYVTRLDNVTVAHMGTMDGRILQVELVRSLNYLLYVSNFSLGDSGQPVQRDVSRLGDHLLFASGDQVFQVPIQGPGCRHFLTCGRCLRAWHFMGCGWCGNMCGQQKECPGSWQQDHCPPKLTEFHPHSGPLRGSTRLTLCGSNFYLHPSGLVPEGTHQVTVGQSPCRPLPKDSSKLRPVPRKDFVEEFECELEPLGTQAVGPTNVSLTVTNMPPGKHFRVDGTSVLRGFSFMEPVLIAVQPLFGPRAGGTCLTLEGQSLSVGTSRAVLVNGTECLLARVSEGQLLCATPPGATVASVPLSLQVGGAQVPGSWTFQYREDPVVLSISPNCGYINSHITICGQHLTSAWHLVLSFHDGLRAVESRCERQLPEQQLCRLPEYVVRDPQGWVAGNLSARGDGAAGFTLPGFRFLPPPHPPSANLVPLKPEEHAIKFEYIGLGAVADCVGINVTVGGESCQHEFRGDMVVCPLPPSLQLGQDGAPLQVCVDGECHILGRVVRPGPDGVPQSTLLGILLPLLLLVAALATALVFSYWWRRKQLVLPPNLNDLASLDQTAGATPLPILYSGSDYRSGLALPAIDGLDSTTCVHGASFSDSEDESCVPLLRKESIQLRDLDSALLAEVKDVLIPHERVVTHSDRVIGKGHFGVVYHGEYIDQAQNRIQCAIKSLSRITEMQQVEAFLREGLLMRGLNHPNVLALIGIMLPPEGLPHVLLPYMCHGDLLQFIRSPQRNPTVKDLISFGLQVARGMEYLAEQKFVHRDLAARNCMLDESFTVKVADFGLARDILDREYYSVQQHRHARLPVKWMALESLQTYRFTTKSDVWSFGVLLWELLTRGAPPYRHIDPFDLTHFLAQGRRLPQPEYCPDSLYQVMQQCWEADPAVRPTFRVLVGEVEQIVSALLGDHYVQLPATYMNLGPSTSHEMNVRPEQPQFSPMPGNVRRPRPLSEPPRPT
T7 sequence (P07333 20-972, one chain of several): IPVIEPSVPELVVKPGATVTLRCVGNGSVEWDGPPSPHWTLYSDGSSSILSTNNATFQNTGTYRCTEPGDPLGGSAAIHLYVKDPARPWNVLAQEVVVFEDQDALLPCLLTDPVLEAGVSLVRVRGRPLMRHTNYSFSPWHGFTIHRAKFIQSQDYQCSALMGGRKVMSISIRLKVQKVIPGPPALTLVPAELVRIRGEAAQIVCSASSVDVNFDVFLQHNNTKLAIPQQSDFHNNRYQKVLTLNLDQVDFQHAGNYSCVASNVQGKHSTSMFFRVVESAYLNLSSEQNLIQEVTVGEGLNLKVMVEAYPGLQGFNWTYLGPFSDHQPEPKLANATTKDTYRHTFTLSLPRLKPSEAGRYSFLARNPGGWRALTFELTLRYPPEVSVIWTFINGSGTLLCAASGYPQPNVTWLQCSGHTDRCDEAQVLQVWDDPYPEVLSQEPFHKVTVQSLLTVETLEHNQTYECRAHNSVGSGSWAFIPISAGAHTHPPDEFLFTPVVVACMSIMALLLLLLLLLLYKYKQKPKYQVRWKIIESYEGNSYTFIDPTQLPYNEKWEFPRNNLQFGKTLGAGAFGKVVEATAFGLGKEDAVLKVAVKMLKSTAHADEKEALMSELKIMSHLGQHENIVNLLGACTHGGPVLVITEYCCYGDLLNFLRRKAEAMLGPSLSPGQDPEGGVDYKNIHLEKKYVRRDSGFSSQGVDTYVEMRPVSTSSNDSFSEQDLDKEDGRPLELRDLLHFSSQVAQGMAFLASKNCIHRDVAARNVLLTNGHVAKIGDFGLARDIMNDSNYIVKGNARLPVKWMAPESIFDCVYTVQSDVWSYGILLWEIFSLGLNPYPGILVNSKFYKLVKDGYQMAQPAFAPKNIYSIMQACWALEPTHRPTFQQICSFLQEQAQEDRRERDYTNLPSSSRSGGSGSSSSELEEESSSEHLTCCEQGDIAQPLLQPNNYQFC

Compound: COc1ccc(/C=C2\N=C(C)N(c3ccc(CC(=O)NCc4ccccc4)cc3)C2=O)cc1 [Compound 4c, (Z)-N-Benzyl-2-(4-(4-(4-methoxybenzylidene)-2-methyl-5-oxo-4,5-dihydro-1H-imidazol-1-yl)phenyl)acetamide]
- Mean Final score (Kinase score) [1]: 1.48
- Mean Kinase Statistic [1]: -1.015
- Mean Significance Score [1]: 1.433
- Mean Specificity Score [1]: 0.07394
- Mean Significance Score [2]: 1.957
- Mean Specificity Score [2]: 0.668
- Mean Final score (Kinase score) ([2]; listed as KIM-161): 2.76 and 2.762
- Mean Significance Score [3]: 2.048
- Mean Specificity Score [3]: 1.0649
- Mean Final score (Kinase score) ([3]; listed as KIM-161): 3.09
- Mean Final score (Kinase score) [4]: 0.8806
- Mean Kinase Statistic [4]: -0.6736
- Mean Significance Score [4]: 0.8204
- Mean Specificity Score [4]: 0.0595
- Mean Final score (Kinase score) [5]: 2.196
- Mean Kinase Statistic [5]: -1.111
- Mean Significance Score [5]: 2.048
- Mean Specificity Score [5]: 0.1452
- Mean Significance Score [6]: 2.048
- Mean Specificity Score [6]: 1.533
- Mean Final score (Kinase score) ([6]; listed as KIM-161): 3.45 and 3.453
- Mean Final score (Kinase score) [7]: 2.549
- Mean Kinase Statistic [7]: -1.225
- Mean Significance Score [7]: 2.048
- Mean Specificity Score [7]: 0.582
- Mean Significance Score [8]: 2.048
- Mean Specificity Score [8]: 0.9095
- Mean Final score (Kinase score) ([8]; listed as KIM-161): 2.96 and 2.957
